Laboratory results: PubChem BioAssay (NCI)
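Test compounds were applied to cells in 96-well plates for 48 hours at 5 doses. Definition used: TGI = concentration required for complete inhibition of growth.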

Assays:
Test in all cases: NCI tumour cell line growth inhibition, 48 h
786-0 renal = system: 786-0 renal
A498 renal = system: A498 renal
A549 NSCLC = system: A549 NSCLC
ACHN renal = system: ACHN renal
CAKI-1 renal = system: CAKI-1 renal
COLO 205 colon = system: COLO 205 colon
DLD-1 colon = system: DLD-1 colon
DMS 114 small cell lung = system: DMS 114 small cell lung
DMS 273 small cell lung = system: DMS 273 small cell lung
EKVX NSCLC = system: EKVX NSCLC
HCC-2998 colon = system: HCC-2998 colon
HCT-116 colon = system: HCT-116 colon
HCT-15 colon = system: HCT-15 colon
HL-60(TB) leukemia = system: HL-60(TB) leukemia
HOP-18 NSCLC = system: HOP-18 NSCLC
HOP-62 NSCLC = system: HOP-62 NSCLC
HOP-92 NSCLC = system: HOP-92 NSCLC
HT29 colon = system: HT29 colon
IGROV1 ovarian = system: IGROV1 ovarian
K-562 leukemia = system: K-562 leukemia
KM12 colon = system: KM12 colon
KM20L2 colon = system: KM20L2 colon
LOX IMVI melanoma = system: LOX IMVI melanoma
LXFL 529 NSCLC = system: LXFL 529 NSCLC
M14 melanoma = system: M14 melanoma
M19-MEL melanoma = system: M19-MEL melanoma
MALME-3M melanoma = system: MALME-3M melanoma
MOLT-4 leukemia = system: MOLT-4 leukemia
NCI-H226 lung = system: NCI-H226 lung
NCI-H23 lung = system: NCI-H23 lung
NCI-H460 lung = system: NCI-H460 lung
NCI-H522 lung = system: NCI-H522 lung
OVCAR-3 ovarian = system: OVCAR-3 ovarian
OVCAR-4 ovarian = system: OVCAR-4 ovarian
OVCAR-5 ovarian = system: OVCAR-5 ovarian
OVCAR-8 ovarian = system: OVCAR-8 ovarian
RPMI-8226 leukemia = system: RPMI-8226 leukemia
RXF 393 renal = system: RXF 393 renal
RXF-631 renal = system: RXF-631 renal
SF-268 CNS = system: SF-268 CNS
SF-295 CNS = system: SF-295 CNS
SF-539 CNS = system: SF-539 CNS
SK-MEL-28 melanoma = system: SK-MEL-28 melanoma
SK-MEL-5 melanoma = system: SK-MEL-5 melanoma
SK-OV-3 ovarian = system: SK-OV-3 ovarian
SN12C renal = system: SN12C renal
SNB-19 CNS = system: SNB-19 CNS
SNB-75 CNS = system: SNB-75 CNS
SNB-78 CNS = system: SNB-78 CNS
SR leukemia = system: SR leukemia
SW-620 colon = system: SW-620 colon
TK-10 renal = system: TK-10 renal
U251 CNS = system: U251 CNS
UACC-257 melanoma = system: UACC-257 melanoma
UACC-62 melanoma = system: UACC-62 melanoma
UO-31 renal = system: UO-31 renal
XF 498 CNS = system: XF 498 CNS

SMILES: CCCCCCCCCCC(=O)CC(=O)c1c(O)cccc1O
- TGI (786-0 renal): > 100 µM
- TGI (A498 renal): > 100 µM
- TGI (A549 NSCLC): > 100 µM
- TGI (ACHN renal): 91.3 µM
- TGI (CAKI-1 renal): > 100 µM
- TGI (COLO 205 colon): > 100 µM
- TGI (DLD-1 colon): > 100 µM
- TGI (DMS 114 small cell lung): 72 µM
- TGI (DMS 273 small cell lung): 58.2 µM
- TGI (EKVX NSCLC): > 100 µM
- TGI (HCC-2998 colon): > 100 µM
- TGI (HCT-116 colon): 41.8 µM
- TGI (HCT-15 colon): > 100 µM
- TGI (HL-60(TB) leukemia): 37.3 µM
- TGI (HOP-18 NSCLC): 98.7 µM
- TGI (HOP-62 NSCLC): 72.9 µM
- TGI (HOP-92 NSCLC): 82 µM
- TGI (HT29 colon): > 100 µM
- TGI (IGROV1 ovarian): > 100 µM
- TGI (K-562 leukemia): 81.3 µM
- TGI (KM12 colon): > 100 µM
- TGI (KM20L2 colon): > 100 µM
- TGI (LOX IMVI melanoma): 37 µM
- TGI (LXFL 529 NSCLC): > 100 µM
- TGI (M14 melanoma): > 100 µM
- TGI (M19-MEL melanoma): 67.1 µM
- TGI (MALME-3M melanoma): > 100 µM
- TGI (MOLT-4 leukemia): 59 µM
- TGI (NCI-H226 lung): 63.6 µM
- TGI (NCI-H23 lung): 81.7 µM
- TGI (NCI-H460 lung): > 100 µM
- TGI (NCI-H522 lung): 90.4 µM
- TGI (OVCAR-3 ovarian): 63.7 µM
- TGI (OVCAR-4 ovarian): > 100 µM
- TGI (OVCAR-5 ovarian): 49.1 µM
- TGI (OVCAR-8 ovarian): > 100 µM
- TGI (RPMI-8226 leukemia): 50.2 µM
- TGI (RXF 393 renal): 72.5 µM
- TGI (RXF-631 renal): > 100 µM
- TGI (SF-268 CNS): > 100 µM
- TGI (SF-295 CNS): > 100 µM
- TGI (SF-539 CNS): > 100 µM
- TGI (SK-MEL-28 melanoma): > 100 µM
- TGI (SK-MEL-5 melanoma): 72.8 µM
- TGI (SK-OV-3 ovarian): > 100 µM
- TGI (SN12C renal): > 100 µM
- TGI (SNB-19 CNS): > 100 µM
- TGI (SNB-75 CNS): > 100 µM
- TGI (SNB-78 CNS): > 100 µM
- TGI (SR leukemia): > 100 µM
- TGI (SW-620 colon): > 100 µM
- TGI (TK-10 renal): > 100 µM
- TGI (U251 CNS): 69.5 µM
- TGI (UACC-257 melanoma): 96 µM
- TGI (UACC-62 melanoma): > 100 µM
- TGI (UO-31 renal): 85.9 µM
- TGI (XF 498 CNS): 46.2 µM
